{
  "source": "patent US20200129511A1",
  "about": "“COMPOUNDS AND METHODS FOR TREATMENT OF NAFLD AND NASH” (Arena Pharmaceuticals, Inc., priority 2017, published 2020)",
  "key": {"male C57bl/6j mice": {"tested_on": "male C57bl/6j mice", "assay": "oral glucose tolerance test (oGTT) in normal lean mice", "type": "in vivo, mouse", "conditions": "1 mg/kg and 10 mg/kg p.o.", "method": "(§1) Animals were grouped in regular cages (rats 2/cage, mice 4/cage) with bedding under normal light conditions (lights on 6:30 am-6:30 pm). They were given ad libitum access to food and water. Animals were allowed to acclimate to the facility for several days before handling.\nMouse: Following 2 handling sessions, animals were fasted for 3-16 h.\nThe oral glucose tolerance test (oGTT) was executed as follows: Compound was administered 0-30 min prior to first blood sample. At time 0, a tail nick and glucose test was performed with a hand-held glucometer, then a bolus of glucose ([…], p.o.) was administered. Glucose was again tested at 20, 40, 60, and 120 minutes post glucose administration. During the entire oGTT, a total volume of approximately 10 drops of blood was collected."}, "Sprague-Dawley rat": {"tested_on": "Sprague-Dawley rat", "assay": "oral glucose tolerance test (oGTT) in Sprague-Dawley rat", "type": "in vivo", "method": "as §1\nRat: Animals are fasted 3-16 h.\nThe oral glucose tolerance test (OGTT) was executed as follows: At time minus 30 min, blood was collected via a tail nick and a glucose test performed with a hand-held glucometer, and compound was then administered. At time 0, blood was again collected for glucose reading and then a bolus of glucose (3 g/kg p.o., 6 mL/kg) administered. Blood glucose levels were further tested at 30, 60, and 120 min post glucose administration. During the entire oGTT, a total volume of approximately 8 drops of blood was collected. Rats were used twice with a one week lapse between experiments."}, "ob/ob Mice": {"tested_on": "ob/ob Mice", "assay": "oGTT in ob/ob mice", "type": "in vivo, mouse", "conditions": "3 mg/kg"}, "ZDF rat": {"tested_on": "ZDF rat", "assay": "oGTT in ZDF rat", "type": "in vivo", "conditions": "3 mg/kg"}, "Cynomolgus monkey": {"tested_on": "Cynomolgus monkey", "assay": "oGTT in normal cynomolgus monkey", "type": "in vivo", "conditions": "3 mg/kg"}, "[1]": {"assay": "oral pharmacokinetics in mouse", "type": "in vivo, Male C57B1 mouse"}, "[2]": {"assay": "oral pharmacokinetics in rat", "type": "in vivo", "conditions": "Male Sprague-Dawley rat, 10 mg/kg, 40% HPβCD"}, "[3]": {"assay": "oral pharmacokinetics in dog", "type": "in vivo", "conditions": "Male beagle dog, 7.85 mg/kg, 100% PEG400"}, "[4]": {"assay": "oral pharmacokinetics in monkey", "type": "in vivo", "conditions": "Male cynomolgus monkey, 10 mg/kg, 100% PEG400"}, "Caco-2 monolayers": {"tested_on": "Caco-2 monolayers", "assay": "permeability across Caco-2 monolayers", "type": "in vitro ADME"}, "[5]": {"assay": "stability in rat liver microsomes", "type": "in vitro ADME"}, "[6]": {"assay": "stability in human liver microsomes", "type": "in vitro ADME"}, "hERG channel": {"target": "hERG channel (Homo sapiens, UniProt Q12809)", "sequence (Q12809 whole entry)": "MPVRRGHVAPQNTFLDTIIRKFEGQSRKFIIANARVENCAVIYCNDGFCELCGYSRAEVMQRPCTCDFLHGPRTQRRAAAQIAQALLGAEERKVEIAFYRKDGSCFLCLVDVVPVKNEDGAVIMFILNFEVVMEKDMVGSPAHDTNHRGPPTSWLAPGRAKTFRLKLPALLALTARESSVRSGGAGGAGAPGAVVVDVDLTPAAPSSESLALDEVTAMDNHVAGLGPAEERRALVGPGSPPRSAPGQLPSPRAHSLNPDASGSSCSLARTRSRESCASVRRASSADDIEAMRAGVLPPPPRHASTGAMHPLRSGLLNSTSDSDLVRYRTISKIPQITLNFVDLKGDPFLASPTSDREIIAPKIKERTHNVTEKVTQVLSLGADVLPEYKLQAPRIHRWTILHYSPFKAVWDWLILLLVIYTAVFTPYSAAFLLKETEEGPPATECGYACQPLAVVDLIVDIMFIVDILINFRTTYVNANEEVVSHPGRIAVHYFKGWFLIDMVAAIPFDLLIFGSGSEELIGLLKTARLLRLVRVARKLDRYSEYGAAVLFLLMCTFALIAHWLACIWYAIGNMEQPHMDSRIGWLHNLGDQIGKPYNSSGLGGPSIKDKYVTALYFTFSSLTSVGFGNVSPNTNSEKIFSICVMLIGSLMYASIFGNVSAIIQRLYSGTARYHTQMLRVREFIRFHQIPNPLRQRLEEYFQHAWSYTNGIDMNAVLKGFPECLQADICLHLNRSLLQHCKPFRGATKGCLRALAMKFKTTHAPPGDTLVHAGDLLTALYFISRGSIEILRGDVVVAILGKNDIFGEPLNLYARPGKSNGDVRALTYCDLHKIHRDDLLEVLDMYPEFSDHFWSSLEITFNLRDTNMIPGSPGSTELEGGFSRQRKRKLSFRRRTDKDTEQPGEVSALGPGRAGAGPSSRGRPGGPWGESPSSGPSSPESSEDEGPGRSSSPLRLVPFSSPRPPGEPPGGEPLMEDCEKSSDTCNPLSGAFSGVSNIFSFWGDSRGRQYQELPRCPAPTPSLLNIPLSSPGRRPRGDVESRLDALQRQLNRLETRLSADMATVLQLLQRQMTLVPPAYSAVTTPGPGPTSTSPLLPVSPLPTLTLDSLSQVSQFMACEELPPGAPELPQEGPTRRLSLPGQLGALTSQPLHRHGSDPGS", "assay": "hERG patch clamp study", "type": "cell-based"}, "anesthetized Guinea Pig": {"tested_on": "anesthetized Guinea Pig", "assay": "cardiovascular effects in the anesthetized Guinea Pig", "type": "in vivo", "conditions": "cumulative doses up to 5 mg/kg i.v., compared to vehicle controls"}, "[7]": {"tested_on": "Male C57BL/6 mice fed high fat diet", "assay": "High Fat Diet (HFD) mouse model of non-alcoholic fatty liver disease", "type": "in vivo", "conditions": "five times per week for six weeks", "from_the_text": "Male C57BL/6 mice (8 weeks) were fed either normal or high fat diet (HFD) (60% TD06414, Envigo) and given water ad libitum. […] At 20 weeks, mice were sacrificed and serum plasma was collected for measurement of various biochemical parameters, including serum transaminases."}, "rat": {"tested_on": "rat", "conditions": "14-day"}, "dog": {"tested_on": "dog", "conditions": "7-day"}, "healthy male volunteers": {"tested_on": "healthy male volunteers", "conditions": "cited from earlier work"}, "T2DM patients": {"tested_on": "T2DM patients", "conditions": "cited from earlier work"}, "mice fed a high-fat diet": {"tested_on": "mice fed a high-fat diet", "conditions": "cited from earlier work"}, "[8]": {"conditions": "Sprague-Dawley rat, 3-30 mg/kg PO"}, "[9]": {"conditions": "Male C57B1 mouse, 10 mg/kg, 40% HPβCD"}, "[10]": {"conditions": "healthy male volunteers, 2.5-800 mg"}, "[11]": {"conditions": "oral single-dose, compared with placebo"}, "[12]": {"conditions": "100 or 500 mg single-dose or 500 mg once daily for 14 days"}, "[13]": {"conditions": "multiple dosing, compared to baseline"}, "[14]": {"conditions": "oral administration, mice fed a high-fat diet"}},
  "note": "Entries after “also recorded” stand apart in the source; their conditions may differ.",
  "data": [
    {"compound": "COc1c(Nc2ccc(S(C)(=O)=O)nc2C)ncnc1OC1CCN(C(=O)OC(C)C)CC1", "note": "[Compound 1, 4-[6-(6-Methanesulfonyl-2-methyl-pyridin-3-ylamino)-5-methoxy-pyrimidin-4-yloxy]-piperidine-1-carboxylic acid isopropyl ester]", "values": [
      {"measurement": "AUCglu during oGTT", "setting": "male C57bl/6j mice", "value": "significant reduction; also recorded: significant main effect"},
      {"measurement": "Compd exposure upon oGTT", "setting": "Sprague-Dawley rat; SD rats, 3 mg/kg", "value": "482 ± 116", "unit": "ng/mL"},
      {"measurement": "Blood glucose AUC (% of vehicle group)", "setting": "Sprague-Dawley rat; SD rats, 3 mg/kg, oGTT", "value": "85.1 ± 1.9 % of vehicle group"},
      {"measurement": "AUCglu during oGTT", "setting": "Sprague-Dawley rat; [8]", "value": "markedly reduced; also recorded: significant main effect"},
      {"measurement": "glucose handling", "setting": "Sprague-Dawley rat; [8]", "value": "significantly improved"},
      {"measurement": "Blood glucose AUC (% of vehicle group)", "setting": "ob/ob Mice", "value": "78.4 ± 5.1 % of vehicle group"},
      {"measurement": "Compd exposure upon oGTT", "setting": "ZDF rat", "value": "1592 ± 128", "unit": "ng/mL"},
      {"measurement": "Blood glucose AUC (% of vehicle group)", "setting": "ZDF rat; oGTT", "value": "72.8 ± 6.3 % of vehicle group"},
      {"measurement": "Compd exposure upon oGTT", "setting": "Cynomolgus monkey", "value": "112 ± 16.9", "unit": "ng/mL"},
      {"measurement": "Blood glucose AUC (% of vehicle group)", "setting": "Cynomolgus monkey; oGTT", "value": "82.8 ± 1.7 % of vehicle group"},
      {"measurement": "AUCinf", "setting": "[1]; [9]", "value": 319953, "unit": "ng·h/mL"},
      {"measurement": "Cmax", "setting": "[1]; [9]", "value": 25833, "unit": "ng/mL"},
      {"measurement": "tmax", "setting": "[1]; [9]", "value": 2, "unit": "h"},
      {"measurement": "exposure after oral dosing", "setting": "[1]; mouse", "value": "high"},
      {"measurement": "% F", "setting": "[2]", "value": 72, "unit": "%"},
      {"measurement": "AUCinf", "setting": "[2]", "value": 12471, "unit": "ng·h/mL"},
      {"measurement": "Cmax", "setting": "[2]", "value": 1390, "unit": "ng/mL"},
      {"measurement": "tmax", "setting": "[2]", "value": 1, "unit": "h"},
      {"measurement": "% F", "setting": "[3]", "value": 22.1, "unit": "%"},
      {"measurement": "AUCinf", "setting": "[3]", "value": 43743, "unit": "ng·h/mL"},
      {"measurement": "Cmax", "setting": "[3]", "value": 1983, "unit": "ng/mL"},
      {"measurement": "tmax", "setting": "[3]", "value": 8, "unit": "h"},
      {"measurement": "% F", "setting": "[4]", "value": 68.8, "unit": "%"},
      {"measurement": "AUCinf", "setting": "[4]", "value": 64180, "unit": "ng·h/mL"},
      {"measurement": "Cmax", "setting": "[4]", "value": 4803, "unit": "ng/mL"},
      {"measurement": "tmax", "setting": "[4]", "value": 6, "unit": "h"},
      {"measurement": "permeability across Caco-2 monolayers, A to B", "setting": "Caco-2 monolayers; A to B", "value": 26, "unit": "×10⁻⁶ cm/s"},
      {"measurement": "permeability across Caco-2 monolayers, B to A", "setting": "Caco-2 monolayers; B to A", "value": 15, "unit": "×10⁻⁶ cm/s"},
      {"measurement": "t1/2 in liver microsomes", "setting": "[5]", "value": "> 1", "unit": "h"},
      {"measurement": "t1/2 in liver microsomes", "setting": "[6]", "value": "> 1", "unit": "h"},
      {"measurement": "IC50", "setting": "hERG channel", "value": "13 ± 0.2", "unit": "µM"},
      {"measurement": "effects on mean arterial blood pressure (MAP), heart rate (HR) or electrocardiogram (ECG)", "setting": "anesthetized Guinea Pig", "value": "did not produce any dose-related, statistically significant effects"},
      {"measurement": "increases in serum ALT caused by high fat diet", "setting": "[7]; HFD mice, 3, 10 and 30 mg/kg/day", "value": "blocked"},
      {"measurement": "preliminary safety findings", "setting": "rat", "value": "no obvious liabilities"},
      {"measurement": "preliminary safety findings", "setting": "dog", "value": "no obvious liabilities"},
      {"measurement": "hypoglycemia", "setting": "healthy male volunteers; [10]", "value": "not associated with hypoglycemia"},
      {"measurement": "systemic exposure in plasma versus dose", "setting": "healthy male volunteers; [10]", "value": "increased in proportion to the dose"},
      {"measurement": "tolerability", "setting": "healthy male volunteers; [10]", "value": "well tolerated"},
      {"measurement": "influence of food on systemic exposure in plasma", "setting": "healthy male volunteers; healthy male volunteers, coadministration of food", "value": "not influenced by coadministration of food"},
      {"measurement": "terminal elimination half-life", "setting": "healthy male volunteers; healthy male volunteers, oral suspension formulation", "value": "~13", "unit": "h"},
      {"measurement": "glucose excursion", "setting": "healthy male volunteers; [11]", "value": "did not significantly decrease"},
      {"measurement": "insulin secretion", "setting": "healthy male volunteers; [11]", "value": "did not significantly decrease glucose excursion or increase insulin secretion"},
      {"measurement": "postmeal plasma glucagon-like peptide 1 (GLP-1) concentration", "setting": "healthy male volunteers; [11]", "value": "increased"},
      {"measurement": "postmeal plasma glucose-dependent insulinotropic peptide (GIP) concentration", "setting": "healthy male volunteers; [11]", "value": "increased"},
      {"measurement": "postmeal plasma peptide YY (PYY) concentration", "setting": "healthy male volunteers; [11]", "value": "increased"},
      {"measurement": "hypoglycemia", "setting": "T2DM patients; [12]", "value": "not associated with hypoglycemia"},
      {"measurement": "tolerability", "setting": "T2DM patients; [12]", "value": "well tolerated"},
      {"measurement": "plasma systemic exposure versus dose", "setting": "T2DM patients", "value": "increased with increased dose"},
      {"measurement": "post-meal gastric insulinotropic peptide concentration", "setting": "T2DM patients; [13]", "value": "increased"},
      {"measurement": "post-meal total glucagon-like peptide 1 concentration", "setting": "T2DM patients; [13]", "value": "increased"},
      {"measurement": "time to attain steady-state", "setting": "T2DM patients; multiple-dose administration", "value": "approximately 8 days"},
      {"measurement": "plasma systemic exposure after multiple-dose administration", "setting": "T2DM patients; multiple-dose versus single-dose", "value": "approximately two-fold greater"},
      {"measurement": "glucose excursion during an oral glucose tolerance test", "setting": "T2DM patients; single-dose, compared with placebo", "value": "decreased"}
    ]},
    {"compound": "CCc1cnc(N2CCC(c3nc(COc4ccc(-n5cnnn5)cc4)cs3)CC2)nc1", "note": "[MBX-2982]", "values": [
      {"measurement": "increases in serum ALT caused by high fat diet", "setting": "[7]; HFD mice, 10 mg/kg/day", "value": "blocked by treatment with Compound 1, but not MBX-2982"},
      {"measurement": "hepatic antilipogenesis effects in GPR119 KO mice", "setting": "mice fed a high-fat diet; GPR119 KO mice", "value": "abolished"},
      {"measurement": "expression levels of SREBP-1 and lipogenesis-related genes", "setting": "mice fed a high-fat diet; [14]", "value": "potently inhibited"},
      {"measurement": "hepatic lipid accumulation", "setting": "mice fed a high-fat diet; [14]", "value": "potently inhibited"}
    ]}
  ]
}
